Results published in patent US12133530B2, “Herbicidal mixtures comprising L-glufosinate or its salt and at least one VLCFA inhibitor” (BASF SE, priority 2017, dated 2024).

Tests used:
[1] = tested on: ABUTH (Abutilon theophrasti); test: Post-emergence greenhouse pot test, herbicidal activity (scale 0 to 100); assay type: in vivo
Description: (§1) However, the weed control afforded by the compounds, mixtures or compositions is not limited to these species. The analysis of synergism or antagonism between the mixtures or compositions was determined using Colby's equation.
(§2) The culture containers used were plastic flowerpots containing loamy sand with approximately 3.0% of humus as the substrate. The seeds of the test plants were sown separately for each species and/or resistant biotype. For the pre-emergence treatment, the active ingredients, which had been suspended or emulsified in water, were applied directly after sowing by means of finely distributing nozzles. The containers were irrigated gently to promote germination and growth and subsequently covered with transparent plastic hoods until the plants had rooted. This cover caused uniform germination of the test plants, unless this had been impaired by the active ingredients. For the post-emergence treatment, the test plants were first grown to a height of 3 to 15 cm, depending on the plant habit, and only then treated with the active ingredients which had been suspended or emulsified in water. For this purpose, the test plants were either sown directly and grown in the same containers, or they were first grown separately as seedlings and transplanted into the test containers a few days prior to treatment. Depending on the species, the plants were kept at 10-25° C. or 20-35° C., respectively. The test period extended to 20 days after treatment. During this time, the plants were tended, and their response to the individual treatments was evaluated. The evaluation was carried out by using a scale from 0 to 100. 100 means no emergence of the plants or complete destruction of at least the above-ground parts, and 0 means no damage, or normal course of growth. Data shown are the mean of two replications.

AVEFA (Avena fatua) = test: as above; assay type: in vivo; conditions: scale 0-100
Description: as §1, §2

SMILES: CP(=O)(O)CC[C@H](N)C(=O)O [L-Glufosinate, (2S)-2-amino-4-[hydroxy(methyl)phosphinoyl]butyric acid]
- Herbicidal activity against ABUTH, Found ([1]; L-Glufosinate 75 g ai/ha alone, scale 0-100): 0
- Herbicidal activity against ABUTH, Found ([1]; L-Glufosinate 150 g ai/ha alone, scale 0-100): 55
- Herbicidal activity against ABUTH, Found ([1]; L-Glufosinate 200 g ai/ha alone, scale 0-100, mean of two replications): 65
- Herbicidal activity against AVEFA, Found (AVEFA (Avena fatua); L-Glufosinate 75 g ai/ha alone): 0
- Herbicidal activity against AVEFA, Found (AVEFA (Avena fatua); L-Glufosinate 150 g ai/ha alone): 0

SMILES: CCOCCN(C(=O)CCl)C(=C(C)C)c1ccccc1 [Pethoxamid, pethoxamid]
- Herbicidal activity against ABUTH, Found ([1]; Pethoxamid 50 g ai/ha alone, scale 0-100): 0
- Herbicidal activity against ABUTH, Found ([1]; Pethoxamid 100 g ai/ha alone, scale 0-100): 0
- Herbicidal activity against AVEFA, Found (AVEFA (Avena fatua); Pethoxamid 50 g ai/ha alone): 0
- Herbicidal activity against AVEFA, Found (AVEFA (Avena fatua); Pethoxamid 100 g ai/ha alone): 0

SMILES: Cn1nc(C(F)(F)F)c(CS(=O)(=O)C2=NOC(C)(C)C2)c1OC(F)F [Pyroxasulfone, pyroxasulfone]
- Herbicidal activity against ABUTH, Found ([1]; Pyroxasulfone 25 g ai/ha alone, scale 0-100): 40
- Herbicidal activity against ABUTH, Found ([1]; Pyroxasulfone 50 g ai/ha alone, scale 0-100): 70
